Assay results as given in publication PMC6804824, “Volatile composition and classification of Lilium flower aroma types and identification, polymorphisms, and alternative splicing of their monoterpene synthase genes” (Horticulture Research, 2019).
Substitutions are numbered along the chain they refer to.

How the values were obtained:
Assay in all cases: GC-MS product analysis (SPME)
Type in all cases: biochemical
Details in all cases: 30 uM GPP, 10 mM MgCl2, pH 7.2, 30 C, 3 h; products (E)-beta-ocimene, alpha-pinene, limonene; results call protein purified, methods use sonicated cells
LsoTPS-1 / LrlTPS-1 = molecular target: T1, LsoTPS-1 / LrlTPS-1 (Lilium hybrid cultivar, UniProt A0A6M2RDI7)
T1 construct: full length, 586 aa (ORF 1761 bp), plastid transit peptide intact; pTYB12 fusion vector; E. coli BL21(DE3); about 67 kDa
T1 sequence (A0A6M2RDI7 1-586): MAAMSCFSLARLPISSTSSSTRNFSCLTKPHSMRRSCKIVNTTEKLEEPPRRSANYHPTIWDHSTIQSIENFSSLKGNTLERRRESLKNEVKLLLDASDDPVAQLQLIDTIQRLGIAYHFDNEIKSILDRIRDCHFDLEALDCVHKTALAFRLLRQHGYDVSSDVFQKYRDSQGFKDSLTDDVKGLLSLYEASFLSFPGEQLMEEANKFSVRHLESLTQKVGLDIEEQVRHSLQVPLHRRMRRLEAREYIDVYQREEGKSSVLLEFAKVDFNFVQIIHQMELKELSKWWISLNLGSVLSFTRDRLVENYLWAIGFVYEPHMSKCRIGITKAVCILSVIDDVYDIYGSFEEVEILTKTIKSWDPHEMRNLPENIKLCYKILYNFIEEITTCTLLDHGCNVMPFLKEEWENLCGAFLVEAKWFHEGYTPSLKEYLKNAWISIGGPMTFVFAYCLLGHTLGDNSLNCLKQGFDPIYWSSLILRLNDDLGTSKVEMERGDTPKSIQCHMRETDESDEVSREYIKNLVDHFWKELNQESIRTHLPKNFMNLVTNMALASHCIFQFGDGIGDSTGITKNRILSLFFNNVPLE

LsoTPS-2 = molecular target: T2, LsoTPS-2 (Lilium hybrid cultivar, UniProt A0A2H4R3S6)
T2 construct: gene TPS; full length, 590 aa (ORF 1773 bp), plastid transit peptide intact; pTYB12 fusion vector; E. coli BL21(DE3); about 68 kDa
T2 sequence (A0A2H4R3S6 1-590): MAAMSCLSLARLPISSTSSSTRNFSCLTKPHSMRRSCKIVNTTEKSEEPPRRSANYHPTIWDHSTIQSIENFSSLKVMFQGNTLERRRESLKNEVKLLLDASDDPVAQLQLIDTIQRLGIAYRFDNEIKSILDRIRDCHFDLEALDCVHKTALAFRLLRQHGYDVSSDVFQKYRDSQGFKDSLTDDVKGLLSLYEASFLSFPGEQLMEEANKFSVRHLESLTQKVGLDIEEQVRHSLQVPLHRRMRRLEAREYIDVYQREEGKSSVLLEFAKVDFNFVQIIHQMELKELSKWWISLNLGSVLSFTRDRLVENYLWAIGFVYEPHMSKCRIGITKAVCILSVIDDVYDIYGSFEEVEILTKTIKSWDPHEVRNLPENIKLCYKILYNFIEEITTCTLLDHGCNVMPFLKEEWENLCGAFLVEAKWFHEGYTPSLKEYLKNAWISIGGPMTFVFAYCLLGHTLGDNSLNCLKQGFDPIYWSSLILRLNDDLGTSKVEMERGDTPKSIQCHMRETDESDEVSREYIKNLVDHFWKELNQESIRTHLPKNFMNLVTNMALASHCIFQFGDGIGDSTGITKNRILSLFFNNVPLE

LsoTPS-3 = molecular target: T3, LsoTPS-3 (Lilium hybrid cultivar, UniProt A0A6M2RCV8)
T3 construct: full length, 548 aa (ORF 1647 bp), plastid transit peptide intact; pTYB12 fusion vector; E. coli BL21(DE3); about 62 kDa
T3 sequence (A0A6M2RCV8 1-548): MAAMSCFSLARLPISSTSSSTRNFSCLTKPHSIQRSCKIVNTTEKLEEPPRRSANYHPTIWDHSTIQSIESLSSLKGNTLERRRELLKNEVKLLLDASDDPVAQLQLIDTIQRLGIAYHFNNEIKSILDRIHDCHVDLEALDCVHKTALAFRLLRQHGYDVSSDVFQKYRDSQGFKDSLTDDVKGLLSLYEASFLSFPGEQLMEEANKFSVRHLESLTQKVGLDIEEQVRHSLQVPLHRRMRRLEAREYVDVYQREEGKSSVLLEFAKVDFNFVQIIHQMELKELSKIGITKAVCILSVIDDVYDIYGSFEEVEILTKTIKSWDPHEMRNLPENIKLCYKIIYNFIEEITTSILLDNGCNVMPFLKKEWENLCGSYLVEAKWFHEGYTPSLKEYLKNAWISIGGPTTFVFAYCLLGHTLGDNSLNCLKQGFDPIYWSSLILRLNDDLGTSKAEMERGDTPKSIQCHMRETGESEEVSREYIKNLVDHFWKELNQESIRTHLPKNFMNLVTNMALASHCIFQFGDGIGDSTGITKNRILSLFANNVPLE

LrlTPS-3 = molecular target: T4, LrlTPS-3 (Lilium hybrid cultivar, UniProt A0A6M2RDN4)
T4 construct: full length, 548 aa (ORF 1647 bp), plastid transit peptide intact; pTYB12 fusion vector; E. coli BL21(DE3); about 62 kDa
T4 sequence (A0A6M2RDN4 1-548): T3 sequence (A0A6M2RCV8 1-548) with L80P, H231R

CC(C)=CCC/C(C)=C/COP(=O)(O)OP(=O)(O)O [GPP]
GC-MS product analysis (SPME) (LsoTPS-1 / LrlTPS-1): all five proteins were able to convert GPP into (E)-β-ocimene, α-pinene, and limonene
GC-MS product analysis (SPME) (LsoTPS-2): all five proteins were able to convert GPP into (E)-β-ocimene, α-pinene, and limonene
GC-MS product analysis (SPME) (LsoTPS-3): all five proteins were able to convert GPP into (E)-β-ocimene, α-pinene, and limonene
GC-MS product analysis (SPME) (LrlTPS-3): all five proteins were able to convert GPP into (E)-β-ocimene, α-pinene, and limonene
